Structures are written as SMILES.

Consider `CCOC(=O)C(C)N(C(=O)CSP(=S)(OC)OC)c1ccccc1` (stereo not given), for which the logP – broadly, a log measure of how a compound divides between an organic and an aqueous phase – worked out at 1.79.

The molecule `CCOC(=O)CN(C(=O)CSP(=S)(OC)OC)c1ccccc1Cl` had a logP of 2.42.

The molecule `CCOC(=O)C(C)N(C(=O)CSP(=S)(OC)OC)c1cccc(Cl)c1` (stereo not given) returned a logP of 3.68.

In turn, `CCOP(=S)(Oc1ccc(Cl)cc1Cl)SCC(=O)N(CC)c1ccccc1C` (stereo not given) returned a logP of 2.82.

As for `CCOC(=O)C(C)N(C(=O)CSP(=S)(OC)OC)c1ccc(Cl)cc1` (stereo not given), the logP worked out at 2.75.

As to `C=CCN(C(=O)CCl)c1ccc(Cl)cc1`, the log partition coefficient (logP) is 3.19.

`CCN(C(=O)CCl)c1ccccc1` displayed a logP of 2.26.

The molecule `CCN(C(=O)CSP(=S)(OC)OC)c1ccc(C)cc1` showed a logP of 2.81.

Take `COP(=S)(OC)SCC(=O)N(Cc1ccccc1)c1ccc(Cl)cc1`: the logP was 4.09.

`CCOC(=O)[C@H](C)N(C(=O)CCl)c1ccccc1`: the logP worked out at 1.79.

With `CCOC(=O)[C@H](C)N(C(=O)CCl)c1ccc(Cl)cc1`, the logP is 2.75.

On to `C=CCN(C(=O)CSP(=S)(OC)OC)c1ccccc1C`, for which the lipophilicity (logP) was 2.93.

Consider `C=CCN(C(=O)CCl)c1cccc(Cl)c1`, for which the logP amounted to 3.38.

For the molecule `C=CCN(C(=O)CSP(=S)(OC)OC)c1ccc(C)cc1`, the logP is 2.92.

For the molecule `CCOC(=O)CN(C(=O)CSP(=S)(OC)OC)c1ccccc1`, the log partition coefficient (logP) came to 1.19.

Take `CCN(C(=O)CSP(=S)(OC)OC)c1ccccc1C`: the logP was determined as 2.82.

With `O=C(CCl)N(Cc1ccccc1)c1ccccc1`, the logP is 3.13.

In the case of `O=C(CCl)N(Cc1ccccc1)c1cccc(Cl)c1`, the logP was 4.28.

Molecule `CCOC(=O)CN(C(=O)CCl)c1cccc(Cl)c1` gave a logP of 2.42.

The molecule `CCOC(=O)CN(C(=O)CSP(=S)(OC)OC)c1ccc(Cl)cc1` registered a logP of 2.15.

Consider `CCCN(C(=O)CCl)c1ccc(Cl)cc1`, for which the logP was determined as 3.62.

As to `COP(=S)(OC)SCC(=O)N(Cc1ccccc1)c1ccccc1`, the logP worked out at 3.13.

Turning to `CCOC(=O)CN(C(=O)CCl)c1ccc(Cl)cc1`, the logP was 2.15.

Consider `CCN(C(=O)CSP(=S)(OC)OC)c1ccccc1`, for which the logP was found to be 2.26.

`CCN(C(=O)CCl)c1ccccc1C` yielded a logP of 2.82.

As to `C=CCN(C(=O)CSP(=S)(OC)OC)c1ccc(Cl)cc1`, the log partition coefficient (logP) stood at 3.19.

`O=C(CCl)N(Cc1ccccc1)c1ccc(Cl)cc1`: the logP was found to be 4.09.

`CCOP(=S)(Oc1ccc(Cl)cc1Cl)SCC(=O)N(CC)c1ccc(C)cc1` (stereo not given) gave a logP of 2.82.

For the molecule `COP(=S)(OC)SCC(=O)N(c1ccccc1)C(C)C`, the logP came to 2.5.

With `C=CCN(C(=O)CCl)c1ccc(C)cc1`, the logP was 2.92.

Source of the values: the SangsterLogP compilation.
